These results are taken from ChEMBL document CHEMBL2029331, “Red fluorescent scaffold for highly sensitive protease activity probes” (Bioorg Med Chem Lett, 2012).

The source made the active and inactive calls. No cut-off for these calls is given here.

Assay [1] has as its target T1, Caspase-3 (Homo sapiens) (UniProt P42574).
T1 sequence (whole entry): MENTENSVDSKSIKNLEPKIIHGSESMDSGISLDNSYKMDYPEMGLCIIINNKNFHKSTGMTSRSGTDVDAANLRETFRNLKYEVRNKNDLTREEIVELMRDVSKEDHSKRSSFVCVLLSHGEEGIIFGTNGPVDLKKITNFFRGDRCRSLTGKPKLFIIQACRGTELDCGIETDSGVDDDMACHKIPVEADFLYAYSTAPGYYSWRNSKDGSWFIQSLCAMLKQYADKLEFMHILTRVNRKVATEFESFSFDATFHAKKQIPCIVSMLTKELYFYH
Nature of the assay: Activity of caspase3 assessed as Kcat/Km ratio after 10 hrs by spectrophotometry relative to Ac-DEVD-AMC.

Assay [2] concerns the target Leucyl-cystinyl aminopeptidase (Homo sapiens) (UniProt Q9UIQ6). Nature of the assay: Activity of leucine aminopeptidase after 2.5 hrs by spectrophotometry.
For assay [3], the target named is T1, Caspase-3 (Homo sapiens). As to the kind of experiment: Activity of caspase3 assessed as SiR600 release by measuring increase in fluorescence intensity at 2 uM after 10 hrs by FRET assay relative to control.

Sequence of Leucyl-cystinyl aminopeptidase (Homo sapiens) (Q9UIQ6 whole entry): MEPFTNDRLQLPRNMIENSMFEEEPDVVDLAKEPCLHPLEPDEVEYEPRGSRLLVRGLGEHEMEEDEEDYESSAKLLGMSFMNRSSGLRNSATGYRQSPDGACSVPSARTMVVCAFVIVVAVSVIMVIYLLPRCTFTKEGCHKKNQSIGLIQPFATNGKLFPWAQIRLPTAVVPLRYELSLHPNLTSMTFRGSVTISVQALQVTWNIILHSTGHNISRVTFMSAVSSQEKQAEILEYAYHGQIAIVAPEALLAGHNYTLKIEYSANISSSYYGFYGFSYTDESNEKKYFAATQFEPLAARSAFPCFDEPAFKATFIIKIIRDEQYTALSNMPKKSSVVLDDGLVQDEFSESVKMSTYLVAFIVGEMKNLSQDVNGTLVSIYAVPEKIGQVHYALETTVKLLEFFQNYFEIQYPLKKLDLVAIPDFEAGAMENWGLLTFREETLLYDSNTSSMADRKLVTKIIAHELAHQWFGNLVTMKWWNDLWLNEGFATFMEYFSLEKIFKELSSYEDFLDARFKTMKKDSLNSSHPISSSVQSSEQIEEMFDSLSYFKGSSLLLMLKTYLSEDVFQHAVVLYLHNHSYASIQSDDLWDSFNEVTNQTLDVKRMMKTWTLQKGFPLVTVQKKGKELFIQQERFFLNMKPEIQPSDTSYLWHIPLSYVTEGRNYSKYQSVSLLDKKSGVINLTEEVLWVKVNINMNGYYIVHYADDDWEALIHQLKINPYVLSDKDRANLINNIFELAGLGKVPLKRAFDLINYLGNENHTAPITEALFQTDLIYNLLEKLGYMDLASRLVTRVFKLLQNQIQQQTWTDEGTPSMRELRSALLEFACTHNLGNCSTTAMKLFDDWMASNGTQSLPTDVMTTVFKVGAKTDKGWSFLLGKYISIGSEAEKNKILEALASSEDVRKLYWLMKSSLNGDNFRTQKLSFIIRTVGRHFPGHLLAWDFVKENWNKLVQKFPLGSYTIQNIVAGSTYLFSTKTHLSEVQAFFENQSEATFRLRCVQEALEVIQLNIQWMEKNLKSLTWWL

For the molecule `Cc1ccccc1C1=C2C=CC(=N)C=C2[Si](C)(C)c2cc(NC(=O)[C@H](CC(=O)O)NC(=O)[C@@H](NC(=O)[C@H](CCC(=O)O)NC(=O)[C@H](CC(=O)O)NC(=O)OCc3ccccc3)C(C)C)ccc21`, the fold change (FC) on Caspase-3 (Homo sapiens) [1] worked out at 40; at Caspase-3 (Homo sapiens) [3], 432. Also, in assay [2], the outcome was Active.
